Test results: US20240018123A1, “COMPOUND FOR INHIBITING OR DISINTEGRATING ANDROGEN RECEPTOR, AND PHARMACEUTICAL USE THEREOF” (KOREA RESEARCH INSTITUTE OF CHEMICAL TECHNOLOGY, priority 2020, published 2024)
Like-named read-outs stand apart in the source and are kept apart here.

Key:
LNCaP cells = test: Cytotoxicity assessment (Cell-titer-glo cell viability), LNCaP
VCaP cells = test: Cytotoxicity assessment (Cell-titer-glo cell viability), VCaP; details: read-out: VCaP (CC50); VCaP cells, 6 days of treatment, Cell-titer-glo, vs DMSO
Androgen receptor (AR) = biological target: T1, Androgen receptor (AR) (Homo sapiens, UniProt P10275, T878A); test: Assessment of AR proteolytic activity (Western blotting of LNCap cell lysates); type: cell-based; details: 24 hours of treatment, Western blotting quantified with Image J
T1 construct: 5.5×10^5 LNCap cells were injected into each well of a 6-well plate; endogenous in cells; host or cells: LNCaP
T1 sequence (P10275 1-920 T878A): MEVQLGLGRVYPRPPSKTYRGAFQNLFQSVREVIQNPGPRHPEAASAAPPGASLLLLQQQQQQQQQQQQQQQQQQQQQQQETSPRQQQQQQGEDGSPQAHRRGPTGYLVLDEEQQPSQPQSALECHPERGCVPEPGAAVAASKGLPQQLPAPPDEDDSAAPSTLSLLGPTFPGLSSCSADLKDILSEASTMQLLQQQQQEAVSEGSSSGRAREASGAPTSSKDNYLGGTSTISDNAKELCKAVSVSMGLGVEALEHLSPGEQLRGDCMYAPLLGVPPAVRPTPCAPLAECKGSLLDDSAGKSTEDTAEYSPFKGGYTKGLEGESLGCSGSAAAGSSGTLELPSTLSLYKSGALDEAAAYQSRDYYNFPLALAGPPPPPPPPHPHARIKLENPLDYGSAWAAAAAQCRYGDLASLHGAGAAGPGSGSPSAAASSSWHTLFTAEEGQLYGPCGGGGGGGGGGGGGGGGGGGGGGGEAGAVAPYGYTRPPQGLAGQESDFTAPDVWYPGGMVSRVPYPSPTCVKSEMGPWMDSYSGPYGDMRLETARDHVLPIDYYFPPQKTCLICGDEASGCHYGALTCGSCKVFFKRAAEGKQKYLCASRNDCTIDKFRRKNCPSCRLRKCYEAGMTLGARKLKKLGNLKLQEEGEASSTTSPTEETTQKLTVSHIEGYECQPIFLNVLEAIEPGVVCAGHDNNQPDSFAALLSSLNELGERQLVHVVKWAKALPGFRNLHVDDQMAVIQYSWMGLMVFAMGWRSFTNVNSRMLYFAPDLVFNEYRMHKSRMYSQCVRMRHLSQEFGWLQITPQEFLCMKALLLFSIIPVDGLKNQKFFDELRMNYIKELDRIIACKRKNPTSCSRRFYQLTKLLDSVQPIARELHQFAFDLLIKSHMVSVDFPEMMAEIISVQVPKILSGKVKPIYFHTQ
Outline: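 AR degradation read by Western blot densitometry on RIPA lysates (pH 7.5, protease inhibitor cocktail). Lysates came from LNCap cells, 5.5×10^5 per well, exposed to compound for 24 hours.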

[1] = read-out: LNCAP (CC50), LNCaP cells, 6 days of treatment, Cell-titer-glo, vs DMSO

remaining activity at 1 µM (Androgen receptor (AR); read-out: Degradation (1 μM treated in LNCaP, % AR remaining)) [%]	Structure (SMILES)	CC50 (LNCaP cells; [1]) [µM]	CC50 (VCaP cells) [µM]	Degradation (1 μM treated in LNCaP, % AR remaining) (Androgen receptor (AR)) [%]	CC50 (LNCaP cells; Homo sapiens, LNCaP, 144 h, read-out: LNCAP (CC50, μM)) [µM]
–	CC1(C)C(NC(=O)c2ccc(CCN3CC4CN(C(=O)C5CCN(c6ccc7nnn(C8CCC(=O)NC8=O)c(=O)c7c6)CC5)CC4C3)cc2)C(C)(C)C1Oc1ccc(C#N)c(Cl)c1 (stereo not drawn) [Example 93, N-((1r,3r)-3-(3-chloro-4-cyanophenoxy)-2,2,4,4-tetramethylcyclobutyl)-4-(2-(5-(1-(3-(2,6-dioxopiperidin-3-yl)-4-oxo-3,4-dihydrobenzo[d][1,2,3]triazin-6-yl)piperidine-4-carbonyl)hexahydropyrrolo[3,4-c]pyrrol-2(1H)-yl)ethyl)benzamide]	0.0515	0.0224	–	–
–	CC1(C)C(NC(=O)c2ccc(OCCOCCOCCOCCOCCOCCCCNC(=O)C3CN(c4ccc5nnn(C6CCC(=O)NC6=O)c(=O)c5c4)C3)cc2)C(C)(C)C1Oc1ccc(C#N)c(Cl)c1 (stereo not drawn) [Example 16, N-(1-(4-(((1r,3r)-3-(3-chloro-4-cyanophenoxy)-2,2,4,4-tetramethylcyclobutyl)carbamoyl)phenoxy)-3,6,9,12,15-pentaoxanonadecan-19-yl)-1-(3-(2,6-dioxopiperidin-3-yl)-4-oxo-3,4-dihydrobenzo[d][1,2,3]triazin-6-yl)azetidine-3-carboxamide]	1.95	–	12.6	–
–	CC1(C)[C@H](NC(=O)c2ccc(OCCOCCOCCOCCOCCOCCNc3cccc4nnn(C5CCC(=O)NC5=O)c(=O)c34)cc2)C(C)(C)[C@H]1Oc1ccc(C#N)c(Cl)c1 (stereo partly drawn) [Example 1, N-((1r,3r)-3-(3-chloro-4-cyanophenoxy)-2,2,4,4-tetramethylcyclobutyl)-4-((17-((3-(2,6-dioxopiperidin-3-yl)-4-oxo-3,4-dihydrobenzo[d][1,2,3]triazin-5-yl)amino)-3,6,9,12,15-pentaoxaheptadecyl)oxy)benzamide]	5.69	–	72	–
–	CC1(C)[C@H](NC(=O)c2ccc(N3CCN(C4CC5(CCN(C(=O)COc6ccc7nnn(C8CCC(=O)NC8=O)c(=O)c7c6)CC5)C4)CC3)cc2)C(C)(C)[C@H]1Oc1ccc(C#N)c(Cl)c1 (stereo partly drawn) [Example 18, N-((1r,3r)-3-(3-chloro-4-cyanophenoxy)-2,2,4,4-tetramethylcyclobutyl)-4-(4-(7-(2-((3-(2,6-dioxopiperidin-3-yl)-4-oxo-3,4-dihydrobenzo[d][1,2,3]triazin-6-yl)oxy)acetyl)-7-azaspiro[3.5]nonan-2-yl)piperazin-1-yl)benzamide]	0.196	–	23	–
–	CC1(C)[C@H](NC(=O)c2ccc(N3CCN(C4CC5(CCN(C(=O)C6CN(c7ccc8nnn(C9CCC(=O)NC9=O)c(=O)c8c7)C6)CC5)C4)CC3)cc2)C(C)(C)[C@H]1Oc1ccc(C#N)c(Cl)c1 (stereo partly drawn) [Example 21, N-((1r,3r)-3-(3-chloro-4-cyanophenoxy)-2,2,4,4-tetramethylcyclobutyl)-4-(4-(7-(1-(3-(2,6-dioxopiperidin-3-yl)-4-oxo-3,4-dihydrobenzo[d][1,2,3]triazin-6-yl)azetidine-3-carbonyl)-7-azaspiro[3.5]nonan-2-yl)piperazin-1-yl)benzamide]	0.312	–	21	–
8.3	CC1(C)[C@H](NC(=O)c2ccc(N3CCN(CC4CCN(C(=O)COc5ccc6nnn(C7CCC(=O)NC7=O)c(=O)c6c5)CC4)CC3)cc2)C(C)(C)[C@H]1Oc1ccc(C#N)c(Cl)c1 (stereo partly drawn) [Example 13, N-((1r,3r)-3-(3-chloro-4-cyanophenoxy)-2,2,4,4-tetramethylcyclobutyl)-4-(4-((1-(2-((3-(2,6-dioxopiperidin-3-yl)-4-oxo-3,4-dihydrobenzo[d][1,2,3]triazin-6-yl)oxy)acetyl)piperidin-4-yl)methyl)piperazin-1-yl)benzamide]	–	–	–	0.803
